Data as given in publication PMC10412585 (Nature Communications, 2023).
Entries after “also recorded” stand apart in the source; their conditions may differ.

Assays:
HLA-E [1] = test: HLA-E surface stabilization assay with RMA-S/HLA-E cells; assay type: cell-based, human; conditions: peptide 3-300 µM (Fig. 3: 30 µM) in OptiMEM, 16 h, 37 °C, anti-HLA-E 3D12, flow cytometry, n = 4 replicate experiments
Experimental: To probe top-predicted proteome-derived peptides (Tables 2 and 3) for HLA-E binding, we assessed their ability to stabilize surface-expressed HLA-E on RMA-S/HLA-E cells, a TAP-deficient mouse cell line engineered to express HLA-E and human β2M (Fig. 3 and Supplemental Fig. 8)[47].
Fig. 3 Peptide stabilization of HLA-E surface expression. Assessment of peptide-HLA-E binding via HLA-E surface stabilization assay with RMA-S/HLA-E cells incubated with 30 μM peptide. HLA-E expression is detected with an anti-HLA-E antibody. Measurements from n = 4 replicate experiments are shown, with solid black lines indicating mean values. […] Source data are provided as a Source Data file.
RMA-S/HLA-E cells were incubated with serial dilutions of peptides (3–300 µM, Genscript) in OptiMEM (ThermoFisher) for 16 h at 37 °C. Cells were washed with PBS, stained for HLA-E (Clone 3D12, Biolegend, 1:200 dilution) for 15 min at room temperature and analyzed by flow cytometry (analysis in FlowJo version 10). Peptide UBAC2_275-279 was ordered as a 5mer peptide (WNRLF) given the similarity with other WN peptides and hypothesis of a truncated peptide binding in the HLA-E groove. […] Measurements from replicate experiments are plotted in Fig. 3 and Supplemental Fig. 8.

NKG2A+/NKG2C- NK cells = test: NK cell activation assay with peptide-pulsed K562/HLA-E cells, NKG2A+/NKG2C- NK cells; assay type: cell-based, human; conditions: K562/HLA-E target cells, 300 µM peptide ([…] µM BFAR263-271), E:T 2:1, 6 h; degranulation (CD107a), IFN-γ, TNF, CCL3; flow cytometry
Experimental: (§1) We hypothesized that our predicted proteome-derived peptides could affect NK cell activation through interactions with CD94/NKG2A and CD94/NKG2C. To investigate, we performed cell-based activation assays on primary NK cells (Fig. 4A). NK cells were co-incubated with peptide-pulsed HLA-E-expressing K562 cells, as described previously. The parental K562 human myelogenous leukemia cell line is a typical target to measure NK cell cytotoxicity and activation, allowing for assessment of both NKG2A-mediated inhibition and NKG2C-mediated activation. […] NKG2A^-/NKG2C^- NK cells served as internal control as these should be unaffected by peptide-HLA-E complexes (Supplemental Fig. 12).
(§2) Fig. 4 NK cell stimulation assays. Assessment of effects of peptides on NK cell activity through incubation of NK cells, peptides, and (A) K562/HLA-E or (B) RMA-S/HLA-E target cells. […] Replicates for individual peptides are from different donors, with solid black lines indicating mean values. […] Representative gating for NKG2A^+/NKG2C^- and NKG2A^-/NKG2C^+ NK cells is shown in Supplemental Fig. 14. Source data are provided as a Source Data file.
(§3) All analyses of human data were carried out in compliance with the relevant ethical regulations. Healthy blood donors gave informed consent at DRK Blutspendedienst Nord-Ost, Dresden, Germany, and buffy coats were obtained as approved by Charité ethics committee (EA4/059/17). PBMCs were isolated from human CMV-seropositive buffy coats by density centrifugation over Ficoll Paque Plus (GE Healthcare) and screened for the presence of NKG2C^+ NK cell expansions by flow cytometry to have sufficient frequencies of single-positive cells for parallel assessment of activation and inhibition via HLA-E[47]. Total NK cells from donors with NKG2C^+ expansions (>10% NKG2A^-/NKG2C^+ NK cells) were enriched with CD56 microbeads (Miltenyi Biotec) and cryopreserved in FBS with 10% v/v DMSO. After thawing, NK cells were washed with complete medium, stained with antibodies and Fixable Viability Dye eFluor 780 (Thermo Fisher) for 15 min at 4 °C in PBS, sorted as viable CD56^+ CD3^− cells, and rested in complete media overnight. […] Brefeldin A and Monensin (BD Biosciences) were added after a 1 h culture period. After an additional 5 h, the stimulation was stopped by centrifugation at 4 °C. Cells underwent surface staining, followed by fixation and intracellular staining using Inside Stain Kit (Miltenyi Biotec). Samples were analyzed by flow cytometry on an LSR Fortessa (BD Biosciences). Inhibition of NKG2A^+ NK cells and activation of NKG2C^+ NK cells was assessed by gating on the respective single-positive populations (Supplemental Fig. 14). Antibodies are listed in Supplemental Table 1: anti-human CD56 PE/Dazzle 594 (1:200 dilution), CD3 APC-eFluor 780 (1:50 dilution), anti-human CD159a (NKG2A) Biotin REAfinity (1:50 dilution), anti-human CD159c (NKG2C) PE REAfinity (1:100 dilution), anti-human CD107a (LAMP-1) Alexa Fluor 488 (1:400 dilution), anti-human IFN-γ PE-Vio 770 REAfinity (1:50 dilution), anti-human TNF-α Brilliant Violet 605 (1:50 dilution), anti-human CCL3 (MIP-1α) REAfinity (1:25 dilution).

NKG2A-/NKG2C+ NK cells = test: NK cell activation assay with peptide-pulsed K562/HLA-E cells, NKG2A-/NKG2C+ NK cells; assay type: cell-based, human; conditions: K562/HLA-E target cells, 300 µM peptide ([…] µM BFAR263-271), E:T 2:1, 6 h; degranulation (CD107a), IFN-γ, TNF, CCL3; flow cytometry
Experimental: as §1, §2, §3

NKG2C+ NK cells = test: NK cell activation assay with peptide-pulsed RMA-S/HLA-E cells; assay type: cell-based, human
Experimental: as §2
In contrast to K562 cell lines which are targets for human NK cells, RMA-S cells (a TAP-deficient mouse cell line)[48] are inert to human NK cells and thus will not activate NK cells absent engagement of an activating receptor on the NK cells. […] We performed additional NK cell activation assays with RMA-S/HLA-E cells (Fig. 4B).
as §3

HLA-E [2] = test: Prometheus differential scanning fluorimetry of HLA-E with peptide; assay type: binding, human; conditions: refolded HLA-E*01:03/β2M 9 μg, 50x peptide to MHC ratio, high sensitivity capillary, 1 °C per minute 20-95 °C, first inflection point; DMSO control 33.8
Experimental: Differential scanning fluorimetry (DSF) experiments were performed with a Prometheus NanoTemper NT.48 (Munich, Germany) to measure protein stability, using intrinsic tryptophan fluorescence.
For these experiments, refolded empty HLA-E was generated. Human β2M plus a poly-histidine tag and HLA-E*01:03 extracellular α1, α2, and α3 domains plus an AviTag biotinylation tag were separately codon optimized for E. coli and cloned into the bacterial expression vector pET28a. Inclusion bodies for HLA-E and β2M were made in BL21 E. coli. Inclusion bodies were purified, homogenized, and dissolved, including denaturation in 8 M urea solution. Before refolding, each IB was mixed with an equal volume of Gdn-Cl solution (6 M Guanidine HCl, 500 mM Tris, 2 mM EDTA, 100 mM NaCl) and incubated overnight at 37 °C. β2M was injected dropwise with a 27-gauge needle into refolding buffer (100 mM pH 8.3 Tris, 400 mM L-arginine hydrochloride, 2 mM EDTA, 0.5 mM oxidized glutathione, 5 mM reduced glutathione, 0.2 mM PMSF) and incubated, stirring gently, at 4 °C for 1 h, after which an equal mass of HLA-E heavy chain was similarly injected. This solution incubated at 4 °C overnight, followed by two days of dialysis in 10 mM Tris + 50 mM NaCl. Protein was concentrated in 10 kDa molecular weight cutoff centrifugal concentrators and purified by size exclusion chromatography on an AKTAPURE FPLC (GE Healthcare, Chicago IL), using an S200 column followed by a S75 column.
Individual DSF reactions were set up with 9 μg of MHC and 100×, 50×, or 10× peptide to MHC ratio by molarity (peptides from GenScript). The final reaction volume was 20 μL and reaction mixtures were incubated at room temperature for 20–30 min.
Prometheus excitation power was set such that raw fluorescence counts were between 8000–15000 for each sample. Samples were heated at 1 °C per minute, from 20–95 °C. DSF measurements were taken in duplicate with high-sensitivity and standard capillaries. Melting temperatures were similar for a given peptide across conditions, and representative data from 50x ratio in high sensitivity capillary are presented. A secondary inflection point around 60 °C in most melts is consistent with melting of β2M[76]. […]
Supplemental Figure 9. Differential scanning fluorimetry data generated via Prometheus NanoTemper for predicted peptides with HLA-E. a) Raw 350/330 nm ratios and first derivative for samples. The second inflection point is consistent with β2M unfolding. b) Summary of Tm values for the first inflection point called by Prometheus software for these samples. […]

CD94/NKG2A = molecular target: T1, CD94/NKG2A (Homo sapiens, UniProt P26715+Q13241); test: Steady-state SPR of peptide-HLA-E single chain trimers with CD94/NKG2A; assay type: binding; conditions: SPR with CD94/NKG2A and CD94/NKG2C, Fig. 5B; taken as lower stability of the peptide-HLA-E complex
T1 construct: The C-terminus of human NKG2A or NKG2C ectodomain was connected via a GGSGGS linker to human CD94 ectodomain; AviTag biotinylation tag (C); poly-histidine tag (C); made in house; host or cells: baculovirus, High Five (Hi5) insect cells
T1 sequence (Q13241 whole entry, looked up, the tested form may be a part): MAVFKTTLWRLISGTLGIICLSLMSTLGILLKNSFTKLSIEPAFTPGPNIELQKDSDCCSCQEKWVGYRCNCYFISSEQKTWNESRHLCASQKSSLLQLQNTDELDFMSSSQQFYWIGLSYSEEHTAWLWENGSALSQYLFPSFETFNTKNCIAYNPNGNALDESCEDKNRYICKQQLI
T1 sequence (P26715 whole entry, looked up, the tested form may be a part): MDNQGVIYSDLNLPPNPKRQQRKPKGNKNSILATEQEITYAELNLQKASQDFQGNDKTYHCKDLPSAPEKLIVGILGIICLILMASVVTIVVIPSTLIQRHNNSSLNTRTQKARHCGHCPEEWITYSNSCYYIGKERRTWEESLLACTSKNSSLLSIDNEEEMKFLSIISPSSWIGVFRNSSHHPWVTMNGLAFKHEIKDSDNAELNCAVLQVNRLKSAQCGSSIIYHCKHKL
Experimental: Specifically, we measured CD94/NKG2A and CD94/NKG2C affinity for HLA-E complexed with three sets of peptides. […] Third, we included […] peptide as a positive control.
Steady-state surface plasmon resonance experiments were performed with a Biacore T200 instrument. CD94/NKG2x in HBS-EP+ buffer was injected as analyte in a concentration range of 0.1 μM to 102.4 μM and flow rate of 10 μL/min at 25 °C. Data was fit with Prism 9.4 (GraphPad Software Inc; San Diego CA) to a “one site, specific binding” model. Sensorgrams are included in Supplemental Fig. 13.
For investigating WN peptides, biotinylated pMHC was immobilized at approximately 400 Response Units (RU) on a Series S SA sensor chip (Cytiva). […] CD94/NKG2A was injected followed by CD94/NKG2C.
For investigating human-derived peptides, Series S CM5 chips (Cytiva) were coupled to neutravidin and utilized. Biotinylated pMHC was immobilized at approximately 400 RU. On one chip, […] CD94/NKG2A was injected followed by CD94/NKG2C. On a second chip, PISD55-63 HLA-E SCT, AKAP6_388-396 HLA-E SCT, GTF3C5_293-301 HLA-E SCT, and reference HLA-DR401 were immobilized. CD94/NKG2C was injected followed by CD94/NKG2A. Rmax, fit values were calculated by Biacore software. Rmax, theoretical values were calculated using the analyte/ligand mass ratio (0.66) multiplied by the amount of ligand coupled to the chip.

| Sequence | stabilization of HLA-E surface expression (HLA-E [1]) | inhibitory effects on NKG2A+ cells (NKG2A+/NKG2C- NK cells) | activating effects on NKG2C+ cells (NKG2A-/NKG2C+ NK cells) | NKG2C-mediated NK cell activation (NKG2C+ NK cells) | Tm (HLA-E [2]) [°C] | average percent CD107a+ (NKG2C+ NK cells; NKG2C+ NK cells with RMA-S/HLA-E cells, Fig. 4B, stated in author rebuttal) [%] | maximal response units (Rmax) compared to theoretical maximum (CD94/NKG2A) |
| --- | --- | --- | --- | --- | --- | --- | --- |
| VLPHRTQFL [UL120_72-80, Merlin, CMV peptide from Membrane protein UL120, strain Merlin] | strong binding that is weaker than VMAPRTLFL; also recorded: strong HLA-E binding | strong inhibitory effects | strong activating effects | activation similar to the weaker positive control ([…]) or between the two positive controls | 45.7 |  |  |
| QMPSRSLLF [CREB3L1_419-427] | strong binding that is weaker than VMAPRTLFL; also recorded: strong stabilization | more moderate inhibitory effects | strong activating effects | activation similar to the weaker positive control ([…]) or between the two positive controls | 46.2 |  |  |
| TGPWRSLWI [GTF3C5_293-301, human peptide from General transcription factor 3C polypeptide 5] | weak but detectable stabilization | minimal inhibitory effects | clear activating effects | detectable activation, though below both positive control examples |  | 11.1 | lower maximal values compared to the theoretical maximum |
